From PubChem BioAssay (NCI)
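How tested: cells in 96-well plates exposed to compound for 48 hours at five concentrations. GI50 is the concentration that inhibits growth by half. TGI: concentration producing complete growth inhibition.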

What was measured:
Experiment in all cases: inhibition of tumour cell growth, NCI panel, 48 h
DMS 273 small cell lung = system: DMS 273 small cell lung
SN12C renal = system: SN12C renal
OVCAR-8 ovarian = system: OVCAR-8 ovarian
RXF 393 renal = system: RXF 393 renal
KM20L2 colon = system: KM20L2 colon
SNB-75 CNS = system: SNB-75 CNS
SK-MEL-28 melanoma = system: SK-MEL-28 melanoma
SF-268 CNS = system: SF-268 CNS
UO-31 renal = system: UO-31 renal
KM12 colon = system: KM12 colon
DMS 114 small cell lung = system: DMS 114 small cell lung
HCT-116 colon = system: HCT-116 colon
LOX IMVI melanoma = system: LOX IMVI melanoma
M14 melanoma = system: M14 melanoma
EKVX NSCLC = system: EKVX NSCLC
SNB-19 CNS = system: SNB-19 CNS
HOP-62 NSCLC = system: HOP-62 NSCLC
SR leukemia = system: SR leukemia
XF 498 CNS = system: XF 498 CNS
ACHN renal = system: ACHN renal
TK-10 renal = system: TK-10 renal
U251 CNS = system: U251 CNS
A549 NSCLC = system: A549 NSCLC
HOP-18 NSCLC = system: HOP-18 NSCLC
OVCAR-3 ovarian = system: OVCAR-3 ovarian
SK-MEL-2 melanoma = system: SK-MEL-2 melanoma
SW-620 colon = system: SW-620 colon
HT29 colon = system: HT29 colon
RPMI-8226 leukemia = system: RPMI-8226 leukemia
786-0 renal = system: 786-0 renal
UACC-62 melanoma = system: UACC-62 melanoma
SK-OV-3 ovarian = system: SK-OV-3 ovarian
OVCAR-5 ovarian = system: OVCAR-5 ovarian
MOLT-4 leukemia = system: MOLT-4 leukemia
HCT-15 colon = system: HCT-15 colon
M19-MEL melanoma = system: M19-MEL melanoma
K-562 leukemia = system: K-562 leukemia
OVCAR-4 ovarian = system: OVCAR-4 ovarian
NCI-H522 lung = system: NCI-H522 lung
LXFL 529 NSCLC = system: LXFL 529 NSCLC
SK-MEL-5 melanoma = system: SK-MEL-5 melanoma
NCI-H226 lung = system: NCI-H226 lung
HOP-92 NSCLC = system: HOP-92 NSCLC
RXF-631 renal = system: RXF-631 renal
CAKI-1 renal = system: CAKI-1 renal
DLD-1 colon = system: DLD-1 colon
MALME-3M melanoma = system: MALME-3M melanoma
CCRF-CEM leukemia = system: CCRF-CEM leukemia
NCI-H460 lung = system: NCI-H460 lung
SNB-78 CNS = system: SNB-78 CNS
HL-60(TB) leukemia = system: HL-60(TB) leukemia
UACC-257 melanoma = system: UACC-257 melanoma
SF-295 CNS = system: SF-295 CNS
COLO 205 colon = system: COLO 205 colon
A498 renal = system: A498 renal
IGROV1 ovarian = system: IGROV1 ovarian
MDA-MB-435 = system: MDA-MB-435
DU-145 prostate = system: DU-145 prostate
NCI-H23 lung = system: NCI-H23 lung
HCC-2998 colon = system: HCC-2998 colon
MDA-MB-231 breast = system: MDA-MB-231 breast
HS 578T breast = system: HS 578T breast
MCF7 breast = system: MCF7 breast
MDA-N = system: MDA-N
PC-3 prostate = system: PC-3 prostate
NCI/ADR-RES ovarian = system: NCI/ADR-RES ovarian
T-47D breast = system: T-47D breast
SF-539 CNS = system: SF-539 CNS
BT-549 breast = system: BT-549 breast

## CC(=O)Oc1ccc(CO)cc1OC(C)=O
DMS 273 small cell lung
  TGI: > 100 µM
SN12C renal
  TGI: > 100 µM
OVCAR-8 ovarian
  TGI: > 100 µM
RXF 393 renal
  TGI: > 100 µM
KM20L2 colon
  TGI: > 100 µM
SNB-75 CNS
  TGI: > 100 µM
SK-MEL-28 melanoma
  TGI: > 100 µM
SF-268 CNS
  TGI: > 100 µM
UO-31 renal
  TGI: > 100 µM
KM12 colon
  TGI: > 100 µM
DMS 114 small cell lung
  TGI: > 100 µM
HCT-116 colon
  TGI: > 100 µM
LOX IMVI melanoma
  TGI: > 100 µM
M14 melanoma
  TGI: > 100 µM
EKVX NSCLC
  TGI: > 100 µM
SNB-19 CNS
  TGI: > 100 µM
HOP-62 NSCLC
  TGI: > 100 µM
SR leukemia
  TGI: > 100 µM
XF 498 CNS
  TGI: > 100 µM
ACHN renal
  TGI: > 100 µM
TK-10 renal
  TGI: > 100 µM
U251 CNS
  TGI: > 100 µM
A549 NSCLC
  TGI: > 100 µM
HOP-18 NSCLC
  TGI: > 100 µM
OVCAR-3 ovarian
  TGI: > 100 µM
SK-MEL-2 melanoma
  TGI: > 100 µM
SW-620 colon
  TGI: > 100 µM
HT29 colon
  TGI: > 100 µM
RPMI-8226 leukemia
  TGI: > 100 µM
786-0 renal
  TGI: > 100 µM
UACC-62 melanoma
  TGI: > 100 µM
SK-OV-3 ovarian
  TGI: > 100 µM
OVCAR-5 ovarian
  TGI: > 100 µM
MOLT-4 leukemia
  TGI: > 100 µM
HCT-15 colon
  TGI: > 100 µM
M19-MEL melanoma
  TGI: > 100 µM
K-562 leukemia
  TGI: > 100 µM
OVCAR-4 ovarian
  TGI: > 100 µM
NCI-H522 lung
  TGI: > 100 µM
LXFL 529 NSCLC
  TGI: > 100 µM
SK-MEL-5 melanoma
  TGI: > 100 µM
NCI-H226 lung
  TGI: > 100 µM
HOP-92 NSCLC
  TGI: > 100 µM
RXF-631 renal
  TGI: > 100 µM
CAKI-1 renal
  TGI: > 100 µM
DLD-1 colon
  TGI: > 100 µM
MALME-3M melanoma
  TGI: > 100 µM
CCRF-CEM leukemia
  TGI: 76.1 µM
NCI-H460 lung
  TGI: > 100 µM
SNB-78 CNS
  TGI: > 100 µM
HL-60(TB) leukemia
  TGI: 75.2 µM
UACC-257 melanoma
  TGI: > 100 µM
SF-295 CNS
  TGI: > 100 µM
COLO 205 colon
  TGI: > 100 µM
A498 renal
  TGI: > 100 µM

## C#C[C@H](CCCC)OC(=O)N[C@H](C)c1ccccc1
DMS 273 small cell lung
  TGI: > 100 µM
SN12C renal
  TGI: > 100 µM
OVCAR-8 ovarian
  TGI: > 100 µM
RXF 393 renal
  TGI: 92.4 µM
KM20L2 colon
  TGI: > 100 µM
SNB-75 CNS
  TGI: > 100 µM
SK-MEL-28 melanoma
  TGI: > 100 µM
SF-268 CNS
  TGI: > 100 µM
UO-31 renal
  TGI: 75.8 µM
KM12 colon
  TGI: > 100 µM
DMS 114 small cell lung
  TGI: 81 µM
HCT-116 colon
  TGI: 63.4 µM
LOX IMVI melanoma
  TGI: 87.8 µM
M14 melanoma
  TGI: > 100 µM
EKVX NSCLC
  TGI: > 100 µM
SNB-19 CNS
  TGI: > 100 µM
HOP-62 NSCLC
  TGI: > 100 µM
SR leukemia
  TGI: 99.4 µM
XF 498 CNS
  TGI: > 100 µM
ACHN renal
  TGI: > 100 µM
TK-10 renal
  TGI: > 100 µM
U251 CNS
  TGI: > 100 µM
A549 NSCLC
  TGI: > 100 µM
HOP-18 NSCLC
  TGI: > 100 µM
OVCAR-3 ovarian
  TGI: > 100 µM
SK-MEL-2 melanoma
  TGI: 68.4 µM
SW-620 colon
  TGI: > 100 µM
HT29 colon
  TGI: > 100 µM
RPMI-8226 leukemia
  TGI: 69.4 µM
786-0 renal
  TGI: > 100 µM
UACC-62 melanoma
  TGI: > 100 µM
SK-OV-3 ovarian
  TGI: > 100 µM
OVCAR-5 ovarian
  TGI: 99 µM
MOLT-4 leukemia
  TGI: 94.8 µM
M19-MEL melanoma
  TGI: 93.8 µM
K-562 leukemia
  TGI: > 100 µM
IGROV1 ovarian
  TGI: > 100 µM
OVCAR-4 ovarian
  TGI: > 100 µM
NCI-H522 lung
  TGI: 86.8 µM
LXFL 529 NSCLC
  TGI: > 100 µM
SK-MEL-5 melanoma
  TGI: 37 µM
HOP-92 NSCLC
  TGI: > 100 µM
RXF-631 renal
  TGI: > 100 µM
CAKI-1 renal
  TGI: > 100 µM
DLD-1 colon
  TGI: > 100 µM
CCRF-CEM leukemia
  TGI: > 100 µM
NCI-H460 lung
  TGI: > 100 µM
SNB-78 CNS
  TGI: > 100 µM
HL-60(TB) leukemia
  TGI: 40.7 µM
UACC-257 melanoma
  TGI: 71 µM
SF-295 CNS
  TGI: > 100 µM
COLO 205 colon
  TGI: 48.7 µM

## COC1CC(CC2CCC(C)C(C(C)C(=O)O)O2)OC2(OC(C)(C3CCC(C)(C4OC(C5OC(O)(CO)C(C)CC5C)CC4C)O3)CC2C)C1C (configuration not stated)
MDA-MB-435
  TGI: 11.1 µM
DU-145 prostate
  TGI: > 100 µM
DMS 273 small cell lung
  TGI: 10.4 µM
SN12C renal
  TGI: 23.7 µM
OVCAR-8 ovarian
  TGI: 41.3 µM
NCI-H23 lung
  TGI: 8.76 µM
RXF 393 renal
  TGI: 1.15 µM
KM20L2 colon
  TGI: 11 µM
SNB-75 CNS
  TGI: 8.7 µM
SK-MEL-28 melanoma
  TGI: 6.66 µM
HCC-2998 colon
  TGI: 11.5 µM
MDA-MB-231 breast
  TGI: 46 µM
SF-268 CNS
  TGI: 36.5 µM
UO-31 renal
  TGI: 33.8 µM
KM12 colon
  TGI: 11.9 µM
DMS 114 small cell lung
  TGI: 1.03 µM
HCT-116 colon
  TGI: 15.6 µM
LOX IMVI melanoma
  TGI: 9.81 µM
M14 melanoma
  TGI: 5.82 µM
EKVX NSCLC
  TGI: 49.2 µM
SNB-19 CNS
  TGI: 5.67 µM
HOP-62 NSCLC
  TGI: 19.6 µM
SR leukemia
  TGI: 1.54 µM
HS 578T breast
  TGI: > 35.2 µM
MCF7 breast
  TGI: > 27.9 µM
XF 498 CNS
  TGI: 1.01 µM
ACHN renal
  TGI: 45.1 µM
TK-10 renal
  TGI: 36.8 µM
U251 CNS
  TGI: 11.9 µM
A549 NSCLC
  TGI: 21.8 µM
HOP-18 NSCLC
  TGI: 11.5 µM
OVCAR-3 ovarian
  TGI: 14 µM
SK-MEL-2 melanoma
  TGI: 5.22 µM
SW-620 colon
  TGI: 17.9 µM
MDA-N
  TGI: 4.99 µM
HT29 colon
  TGI: 27.4 µM
RPMI-8226 leukemia
  TGI: 8.39 µM
786-0 renal
  TGI: 30.5 µM
UACC-62 melanoma
  TGI: 4.44 µM
SK-OV-3 ovarian
  TGI: 46.3 µM
OVCAR-5 ovarian
  TGI: 69.6 µM
MOLT-4 leukemia
  TGI: 6.13 µM
HCT-15 colon
  TGI: 29.1 µM
M19-MEL melanoma
  TGI: 2.18 µM
K-562 leukemia
  TGI: 2.03 µM
IGROV1 ovarian
  TGI: 66.9 µM
PC-3 prostate
  TGI: 49 µM
OVCAR-4 ovarian
  TGI: 53.1 µM
NCI/ADR-RES ovarian
  GI50: 2.58 µM
  TGI: > 66.1 µM
T-47D breast
  TGI: 2.41 µM
NCI-H522 lung
  TGI: 0.591 µM
LXFL 529 NSCLC
  TGI: 4.02 µM
SK-MEL-5 melanoma
  TGI: 1.83 µM
NCI-H226 lung
  TGI: 21.3 µM
HOP-92 NSCLC
  TGI: 16.4 µM
RXF-631 renal
  TGI: 12.9 µM
CAKI-1 renal
  TGI: 38.3 µM
SF-539 CNS
  TGI: 10.3 µM
DLD-1 colon
  TGI: 14.1 µM
MALME-3M melanoma
  TGI: 0.798 µM
CCRF-CEM leukemia
  TGI: 17.7 µM
NCI-H460 lung
  TGI: 22 µM
SNB-78 CNS
  TGI: 68.3 µM
HL-60(TB) leukemia
  TGI: 1.1 µM
UACC-257 melanoma
  TGI: 4.07 µM
SF-295 CNS
  TGI: 11.6 µM
COLO 205 colon
  TGI: 2.67 µM
A498 renal
  TGI: 3.39 µM
BT-549 breast
  TGI: 27.7 µM
